Measurements reported in publication PMC9736374, “Design, Synthesis and Antimicrobial Properties of New Tetracyclic Quinobenzothiazine Derivatives” (International Journal of Molecular Sciences, 2022).

System: methicillin-resistant S. aureus 63718 (MRSA3)
Assay: MBC, agar aliquot subculture method
Type: cell-based
Settings: Staphylococcus aureus; MRSA3 = 63718

Compound	MBC [µM]
C=CCOc1cccc2c1Nc1c(c[n+](C)c3ccccc13)S2 [Compound 6f, 11-allyloxy-5-methyl-12H-quino[3,4-b][1,4]benzothiazinium chloride]	359
C=CCOc1ccc2c(c1)Sc1c[n+](C)c3ccccc3c1N2 [Compound 6d, 9-allyloxy-5-methyl-12H-quino[3,4-b][1,4]benzothiazinium chloride]	44.8

System: vancomycin-resistant E. faecalis VRE 725B (VRE3)
Assay: MIC, microtitration broth method
Type: cell-based, Enterococcus faecalis
Settings: VRE3 = VRE 725B; 24 h, 37 °C

MIC [µM]	Compound
179	C=CCOc1cccc2c1Nc1c(c[n+](C)c3ccccc13)S2 [Compound 6f, 11-allyloxy-5-methyl-12H-quino[3,4-b][1,4]benzothiazinium chloride]
22.4	C=CCOc1ccc2c(c1)Sc1c[n+](C)c3ccccc3c1N2 [Compound 6d, 9-allyloxy-5-methyl-12H-quino[3,4-b][1,4]benzothiazinium chloride]

System: Staphylococcus aureus ATCC 29213
Assay: MIC, microtitration broth method
Type: cell-based
Settings: ATCC29213; SA = Staphylococcus aureus ATCC 29213; 24 h, 37 °C

MIC [µM]	Compound
359	C=CCOc1cccc2c1Nc1c(c[n+](C)c3ccccc13)S2 [Compound 6f, 11-allyloxy-5-methyl-12H-quino[3,4-b][1,4]benzothiazinium chloride]
44.8	C=CCOc1ccc2c(c1)Sc1c[n+](C)c3ccccc3c1N2 [Compound 6d, 9-allyloxy-5-methyl-12H-quino[3,4-b][1,4]benzothiazinium chloride]

System: normal human dermal fibroblasts (NHDF)
Assay: In vitro cell viability, WST-1 assay
Type: cell-based
Settings: 72 h
Description: Compounds were evaluated for their antiproliferative activity using NHDF (normal human dermal fibroblasts, ATCC, Manassas, VA, USA). The cultured cells were kept at 37 °C and 5% CO2. The cells were seeded (1 × 10^4 cells/well/100 μL DMEM supplemented with 10% FCS and streptomycin/penicillin) into 96-well plates (Corning Inc., Corning, NY, USA). Cells were counted using a hemocytometer (Burker chamber) and phase contrast Olympus IX50 microscope equipped with Sony SSC-DC58 AP camera and Olympus DP10 digital camera. The cell viability of the compounds was determined using the Cell Proliferation Reagent WST-1 assay (Roche Molecular Biochemicals, Mannheim, Germany). The examined cells were exposed to the tested compounds (1 mg/mL DMSO stock) for 72 h at various concentrations (0.1–100 μg/mL). The control was included in order to eliminate the DMSO effect at the concentration used. Cell cultures were incubated with WST-1 (10 μL) for 1 h. The absorbance of the samples was measured against a background control at 450 nm using a microplate reader with a reference wavelength at 600 nm. The obtained results are expressed as means of at least two independent experiments performed in triplicate.

Compound	IC50 [µM]
C=CCOc1cccc2c1Nc1c(c[n+](C)c3ccccc13)S2 [Compound 6f, 11-allyloxy-5-methyl-12H-quino[3,4-b][1,4]benzothiazinium chloride]	> 100
C=CCOc1ccc2c(c1)Sc1c[n+](C)c3ccccc3c1N2 [Compound 6d, 9-allyloxy-5-methyl-12H-quino[3,4-b][1,4]benzothiazinium chloride]	> 100

System: Mycobacterium marinum CAMP 5644
Assay: In vitro antimycobacterial MIC, broth dilution micro-method
Type: cell-based
Settings: CAMP5644, 504 h; MM = Mycobacterium marinum CAMP 5644; 21 days, 28 °C

MIC [µM]	Compound
44.8	C=CCOc1cccc2c1Nc1c(c[n+](C)c3ccccc13)S2 [Compound 6f, 11-allyloxy-5-methyl-12H-quino[3,4-b][1,4]benzothiazinium chloride]
11.2	C=CCOc1ccc2c(c1)Sc1c[n+](C)c3ccccc3c1N2 [Compound 6d, 9-allyloxy-5-methyl-12H-quino[3,4-b][1,4]benzothiazinium chloride]

System: methicillin-resistant S. aureus SA 3202 (MRSA1)
Assay: MIC, microtitration broth method
Type: cell-based
Settings: Staphylococcus aureus; MRSA1 = SA 3202; 24 h, 37 °C

MIC [µM]	Compound
359	C=CCOc1cccc2c1Nc1c(c[n+](C)c3ccccc13)S2 [Compound 6f, 11-allyloxy-5-methyl-12H-quino[3,4-b][1,4]benzothiazinium chloride]
44.8	C=CCOc1ccc2c(c1)Sc1c[n+](C)c3ccccc3c1N2 [Compound 6d, 9-allyloxy-5-methyl-12H-quino[3,4-b][1,4]benzothiazinium chloride]

System: methicillin-resistant S. aureus SA 630 (MRSA2)
Assay: MBC, agar aliquot subculture method
Type: cell-based
Settings: Staphylococcus aureus; MRSA2 = SA 630

Compound	MBC [µM]
C=CCOc1cccc2c1Nc1c(c[n+](C)c3ccccc13)S2 [Compound 6f, 11-allyloxy-5-methyl-12H-quino[3,4-b][1,4]benzothiazinium chloride]	359
C=CCOc1ccc2c(c1)Sc1c[n+](C)c3ccccc3c1N2 [Compound 6d, 9-allyloxy-5-methyl-12H-quino[3,4-b][1,4]benzothiazinium chloride]	89.6

System: methicillin-resistant S. aureus SA 3202 (MRSA1)
Assay: MBC, agar aliquot subculture method
Type: cell-based
Settings: Staphylococcus aureus; MRSA1 = SA 3202

Compound	MBC [µM]
C=CCOc1cccc2c1Nc1c(c[n+](C)c3ccccc13)S2 [Compound 6f, 11-allyloxy-5-methyl-12H-quino[3,4-b][1,4]benzothiazinium chloride]	359
C=CCOc1ccc2c(c1)Sc1c[n+](C)c3ccccc3c1N2 [Compound 6d, 9-allyloxy-5-methyl-12H-quino[3,4-b][1,4]benzothiazinium chloride]	44.8

System: vancomycin-resistant E. faecalis VRE 368 (VRE2)
Assay: MIC, microtitration broth method
Type: cell-based, Enterococcus faecalis
Settings: VRE2 = VRE 368; 24 h, 37 °C

MIC [µM]	Compound
359	C=CCOc1cccc2c1Nc1c(c[n+](C)c3ccccc13)S2 [Compound 6f, 11-allyloxy-5-methyl-12H-quino[3,4-b][1,4]benzothiazinium chloride]
44.8	C=CCOc1ccc2c(c1)Sc1c[n+](C)c3ccccc3c1N2 [Compound 6d, 9-allyloxy-5-methyl-12H-quino[3,4-b][1,4]benzothiazinium chloride]

System: not listed separately
Assay: Lipophilicity by RP-TLC
Type: physicochemical
Settings: Tris buffer pH 7.4/acetone, read-out: logPTLC
Description: The lipophilicity parameters were determined experimentally using reverse phase thin-layer chromatography (RP-TLC). Chromatograms were prepared on RP-18F254s plates (1.05559.0001, Merck, Germany) precoated with nonpolar silicone oil. Plates were developed in glass chromatography chambers previously saturated with vapor of mobile phase. The mobile phase was composed of 0.2M Tris buffer (pH = 7.4) and acetone in different concentrations, i.e., 50%, 60%, 70%, 80 and 90%. The chromatograms were visualised in UV light (λ = 254 nm). Determination of the RF coefficient was carried out twice for all compounds; in all cases, acetone concentrations used. The final value of RF is the mean of the two measurements. The obtained RF coefficient was used to calculate the value of the RM parameter according to the equation: RM = log [(1/RF) − 1]. By extrapolating RM values to zero acetone concentration, a relative RM0 lipophilicity parameter was obtained, according to the equation: RM = RM0 + bC, where b is slope and C is concentration of acetone in mobile phase. Based on RM0 and the calibration curve, the values of logPTLC for compounds 6a–l were determined. The calibration curve was calculated using the relationship between RM0 of the standard molecules (acetanilide, p-kresol, p-bromoacetophenone, benzophenone, anthracene) and the corresponding logP parameters specified by the extraction method, respectively. RM0 parameters of the standard molecules and quinobenzothiazine derivatives 6a–l were determined in the same empirical conditions.

chromatographic logP	Compound
2.29	C=CCOc1cccc2c1Nc1c(c[n+](C)c3ccccc13)S2 [Compound 6f, 11-allyloxy-5-methyl-12H-quino[3,4-b][1,4]benzothiazinium chloride]
2.98	C=CCOc1ccc2c(c1)Sc1c[n+](C)c3ccccc3c1N2 [Compound 6d, 9-allyloxy-5-methyl-12H-quino[3,4-b][1,4]benzothiazinium chloride]

System: Enterococcus faecalis ATCC 29212
Assay: MBC, agar aliquot subculture method
Type: cell-based
Settings: ATCC29212; EF = Enterococcus faecalis

Compound	MBC [µM]
C=CCOc1cccc2c1Nc1c(c[n+](C)c3ccccc13)S2 [Compound 6f, 11-allyloxy-5-methyl-12H-quino[3,4-b][1,4]benzothiazinium chloride]	359
C=CCOc1ccc2c(c1)Sc1c[n+](C)c3ccccc3c1N2 [Compound 6d, 9-allyloxy-5-methyl-12H-quino[3,4-b][1,4]benzothiazinium chloride]	44.8

System: Enterococcus faecalis ATCC 29212
Assay: MIC, microtitration broth method
Type: cell-based
Settings: ATCC29212; EF = Enterococcus faecalis; 24 h, 37 °C

MIC [µM]	Compound
179	C=CCOc1cccc2c1Nc1c(c[n+](C)c3ccccc13)S2 [Compound 6f, 11-allyloxy-5-methyl-12H-quino[3,4-b][1,4]benzothiazinium chloride]
44.8	C=CCOc1ccc2c(c1)Sc1c[n+](C)c3ccccc3c1N2 [Compound 6d, 9-allyloxy-5-methyl-12H-quino[3,4-b][1,4]benzothiazinium chloride]

System: vancomycin-resistant E. faecalis VRE 368 (VRE2)
Assay: MBC, agar aliquot subculture method
Type: cell-based, Enterococcus faecalis
Settings: VRE2 = VRE 368

Compound	MBC [µM]
C=CCOc1cccc2c1Nc1c(c[n+](C)c3ccccc13)S2 [Compound 6f, 11-allyloxy-5-methyl-12H-quino[3,4-b][1,4]benzothiazinium chloride]	359
C=CCOc1ccc2c(c1)Sc1c[n+](C)c3ccccc3c1N2 [Compound 6d, 9-allyloxy-5-methyl-12H-quino[3,4-b][1,4]benzothiazinium chloride]	44.8

System: methicillin-resistant S. aureus SA 630 (MRSA2)
Assay: MIC, microtitration broth method
Type: cell-based
Settings: Staphylococcus aureus; MRSA2 = SA 630; 24 h, 37 °C

MIC [µM]	Compound
359	C=CCOc1cccc2c1Nc1c(c[n+](C)c3ccccc13)S2 [Compound 6f, 11-allyloxy-5-methyl-12H-quino[3,4-b][1,4]benzothiazinium chloride]
89.6	C=CCOc1ccc2c(c1)Sc1c[n+](C)c3ccccc3c1N2 [Compound 6d, 9-allyloxy-5-methyl-12H-quino[3,4-b][1,4]benzothiazinium chloride]

System: Staphylococcus aureus ATCC 29213
Assay: MBC, agar aliquot subculture method
Type: cell-based
Settings: ATCC29213; SA = Staphylococcus aureus ATCC 29213

Compound	MBC [µM]
C=CCOc1cccc2c1Nc1c(c[n+](C)c3ccccc13)S2 [Compound 6f, 11-allyloxy-5-methyl-12H-quino[3,4-b][1,4]benzothiazinium chloride]	359
C=CCOc1ccc2c(c1)Sc1c[n+](C)c3ccccc3c1N2 [Compound 6d, 9-allyloxy-5-methyl-12H-quino[3,4-b][1,4]benzothiazinium chloride]	44.8

System: vancomycin-resistant E. faecalis VRE 342B (VRE1)
Assay: MBC, agar aliquot subculture method
Type: cell-based, Enterococcus faecalis
Settings: VRE1 = VRE 342B

Compound	MBC [µM]
C=CCOc1cccc2c1Nc1c(c[n+](C)c3ccccc13)S2 [Compound 6f, 11-allyloxy-5-methyl-12H-quino[3,4-b][1,4]benzothiazinium chloride]	359
C=CCOc1ccc2c(c1)Sc1c[n+](C)c3ccccc3c1N2 [Compound 6d, 9-allyloxy-5-methyl-12H-quino[3,4-b][1,4]benzothiazinium chloride]	44.8

System: vancomycin-resistant E. faecalis VRE 342B (VRE1)
Assay: MIC, microtitration broth method
Type: cell-based, Enterococcus faecalis
Settings: VRE1 = VRE 342B; 24 h, 37 °C

MIC [µM]	Compound
359	C=CCOc1cccc2c1Nc1c(c[n+](C)c3ccccc13)S2 [Compound 6f, 11-allyloxy-5-methyl-12H-quino[3,4-b][1,4]benzothiazinium chloride]
44.8	C=CCOc1ccc2c(c1)Sc1c[n+](C)c3ccccc3c1N2 [Compound 6d, 9-allyloxy-5-methyl-12H-quino[3,4-b][1,4]benzothiazinium chloride]

System: M. smegmatis ATCC 700084
Assay: In vitro antimycobacterial MIC, broth dilution micro-method
Type: cell-based, Mycobacterium smegmatis
Settings: Mycolicibacterium smegmatis, ATCC700084, 72 h; MS = M. smegmatis ATCC 700084; 3 days, 37 °C

MIC [µM]	Compound
89.6	C=CCOc1cccc2c1Nc1c(c[n+](C)c3ccccc13)S2 [Compound 6f, 11-allyloxy-5-methyl-12H-quino[3,4-b][1,4]benzothiazinium chloride]
22.4	C=CCOc1ccc2c(c1)Sc1c[n+](C)c3ccccc3c1N2 [Compound 6d, 9-allyloxy-5-methyl-12H-quino[3,4-b][1,4]benzothiazinium chloride]

System: methicillin-resistant S. aureus 63718 (MRSA3)
Assay: MIC, microtitration broth method
Type: cell-based
Settings: Staphylococcus aureus; MRSA3 = 63718; 24 h, 37 °C

MIC [µM]	Compound
179	C=CCOc1cccc2c1Nc1c(c[n+](C)c3ccccc13)S2 [Compound 6f, 11-allyloxy-5-methyl-12H-quino[3,4-b][1,4]benzothiazinium chloride]
44.8	C=CCOc1ccc2c(c1)Sc1c[n+](C)c3ccccc3c1N2 [Compound 6d, 9-allyloxy-5-methyl-12H-quino[3,4-b][1,4]benzothiazinium chloride]

System: vancomycin-resistant E. faecalis VRE 725B (VRE3)
Assay: MBC, agar aliquot subculture method
Type: cell-based, Enterococcus faecalis
Settings: VRE3 = VRE 725B

Compound	MBC [µM]
C=CCOc1cccc2c1Nc1c(c[n+](C)c3ccccc13)S2 [Compound 6f, 11-allyloxy-5-methyl-12H-quino[3,4-b][1,4]benzothiazinium chloride]	179
C=CCOc1ccc2c(c1)Sc1c[n+](C)c3ccccc3c1N2 [Compound 6d, 9-allyloxy-5-methyl-12H-quino[3,4-b][1,4]benzothiazinium chloride]	44.8
